Test: Radioactivity distribution in mouse body after intravenous administration of radioiodine labeled forms
Settings: mouse, intravenous administration, mean (SD) of 3 to 5 mice
Experimental: Thereafter, 100 μl (0.5 to 1 μCi) of each labeled form was intravenously administered to each group consisting of three to five 5-week-old ddY male mice (25 to 30 g). 2, 10, 30, and 60 minutes after the intravenous administration, such mice were decapitated, and blood was collected. Thereafter, organs were excised, and the weight and radioactivity thereof were then measured.

Distribution of radioactivity, Blood (2 min after administration)	Distribution of radioactivity, Blood (10 min after administration)	Distribution of radioactivity, Blood (30 min after administration)	Distribution of radioactivity, Blood (60 min after administration)	Distribution of radioactivity, Brain (2 min after administration)	Distribution of radioactivity, Brain (10 min after administration)	Distribution of radioactivity, Brain (30 min after administration)	Distribution of radioactivity, Brain (60 min after administration)	Distribution of radioactivity, Heart (2 min after administration)	Distribution of radioactivity, Heart (10 min after administration)	Distribution of radioactivity, Heart (30 min after administration)	Distribution of radioactivity, Heart (60 min after administration)	Distribution of radioactivity, Intestine (2 min after administration)	Distribution of radioactivity, Intestine (10 min after administration)	Distribution of radioactivity, Intestine (30 min after administration)	Distribution of radioactivity, Intestine (60 min after administration)	Distribution of radioactivity, Kidney (2 min after administration)	Distribution of radioactivity, Kidney (10 min after administration)	Distribution of radioactivity, Kidney (30 min after administration)	Distribution of radioactivity, Kidney (60 min after administration)	SMILES	further results
1.87 (0.21) % ID/g	1.19 (0.17) % ID/g	0.40 (0.01) % ID/g	0.23 (0.09) % ID/g	4.00 (0.18) % ID/g	2.36 (0.33) % ID/g	0.51 (0.07) % ID/g	0.17 (0.05) % ID/g	4.98 (0.41) % ID/g	2.25 (0.40) % ID/g	0.84 (0.14) % ID/g	0.47 (0.22) % ID/g	3.52 (0.29) % ID/g	14.39 (0.80) % ID/g	22.51 (1.11) % ID/g	30.05 (3.61) % ID/g	7.99 (1.08) % ID/g	6.30 (1.02) % ID/g	4.51 (1.59) % ID/g	1.46 (1.12) % ID/g	COc1ccc(-c2cc(=O)c3cc([125I])ccc3o2)cc1 [[125I]Compound 19]	Distribution of radioactivity, Liver (2 min after administration): 8.96 (1.48) % ID/g; Distribution of radioactivity, Liver (10 min after administration): 9.01 (0.97) % ID/g; Distribution of radioactivity, Liver (30 min after administration): 3.75 (0.47) % ID/g; Distribution of radioactivity, Liver (60 min after administration): 1.88 (0.61) % ID/g; Distribution of radioactivity, Spleen (2 min after administration): 2.70 (0.08) % ID/g; Distribution of radioactivity, Spleen (10 min after administration): 1.38 (0.37) % ID/g; Distribution of radioactivity, Spleen (30 min after administration): 0.55 (0.30) % ID/g; Distribution of radioactivity, Spleen (60 min after administration): 3.67 (5.89) % ID/g
4.90 (0.52) % ID/g	3.80 (0.91) % ID/g	1.84 (0.31) % ID/g	1.15 (0.44) % ID/g	2.52 (0.20) % ID/g	1.28 (0.17) % ID/g	0.40 (0.11) % ID/g	0.35 (0.05) % ID/g	5.58 (0.99) % ID/g	2.88 (1.02) % ID/g	1.44 (0.34) % ID/g	1.38 (0.34) % ID/g	2.50 (0.31) % ID/g	10.52 (1.82) % ID/g	20.60 (6.13) % ID/g	29.31 (3.26) % ID/g	11.99 (3.60) % ID/g	9.16 (2.76) % ID/g	5.00 (2.27) % ID/g	4.31 (0.81) % ID/g	COc1cc(/C=C/C(=O)c2cccc([125I])c2)ccc1O [[125I]Compound 31]	Distribution of radioactivity, Liver (2 min after administration): 15.71 (1.27) % ID/g; Distribution of radioactivity, Liver (10 min after administration): 18.55 (2.68) % ID/g; Distribution of radioactivity, Liver (30 min after administration): 7.67 (1.68) % ID/g; Distribution of radioactivity, Liver (60 min after administration): 4.05 (0.61) % ID/g; Distribution of radioactivity, Spleen (2 min after administration): 2.57 (0.42) % ID/g; Distribution of radioactivity, Spleen (10 min after administration): 1.80 (0.30) % ID/g; Distribution of radioactivity, Spleen (30 min after administration): 1.03 (0.04) % ID/g; Distribution of radioactivity, Spleen (60 min after administration): 0.88 (0.15) % ID/g
